# Measurements published in article PMC6470885 (Molecules, 2019).
# Where “and” joins values, the source holds several entries; their conditions need not be identical. Identical values can stand only once. Non-standard residues stand in square brackets, D forms with d. Residues, ends and D or L forms follow the SMILES beside them. *: point of attachment. Palmitoyl = CCCCCCCCCCCCCCCC(=O)*; PEG4 = NCCOCCOCCOCCOCCC(=O)O
# Tests used:
# [1] = test system: HIV-1 mutants resistant to T20, T2635, or HP23; format: cell-based; conditions: ratio of IC50s
# Experimental: (§3) For each well of a 96-well plate, 50 μL of a peptide were mixed with 50 μL of 100 × TCID50 (50% tissue culture infective doses) of HIV-1 live virus and incubated at 37 °C for 30 min. Afterwards, 2 × 10^4 MT-2 (for X4 virus) or CEMx174 5.25 M7 cells (for R5 virus) were added. After overnight culture, the supernatant was replaced with fresh RPMI-1640 medium containing 10% fetal bovine serum (FBS). After further culture at 37 °C for three days, 50 μL of the culture medium were collected and mixed with equal volume of 5% (v/v) Triton X-100. The p24 antigen, which represents HIV-1 quantity, was detected by ELISA. Briefly, the collected mixtures were added to a plate coated with anti-HIV Immune Globulin (HIVIG) from the NIH AIDS Reagent Program. Anti-p24 mAb 183, rabbit anti-mouse IgG-HRP (Dako, Glostrup, Denmark) and substrate 3,3,5,5-TMB (Sigma-Aldrich, New York, NY) were added and washed away sequentially. The absorbance at 450 nm (A450) was determined by a Multi-Detection Microplate Reader (Ultra 384, Tecan, Tokyo, Japan). IC50s were calculated using Calcusyn software (Biosoft, Ferguson, MO), and the lines of best fit were drawn using GraphPad Prism 8 software (La Jolla, CA).
# [2] = Serum half-life and pharmacokinetic parameters in mice
# Experimental: (§1) Evaluation of ex vivo anti-HIV-1 activity of a peptide in a mouse model was performed as described recently. This mouse experiment was conducted under ethical guidelines and approved by the Institutional Laboratory Animal Care and Use Committee at Fudan University (20160927-2). ICR mice used for this study were bred at the Department of Laboratory Animal Science of Fudan University. Briefly, 5 mg/kg of a peptide were intraperitoneally (i.p.) injected into four female ICR mice (8 weeks). […] Anti-HIV-1 activities of the mouse serum samples were determined in the same way as described above. The highest dilution-fold of the serum causing 50% inhibition of HIV-1IIIB infection (IC50) was calculated.
# [3] = test system: M7 cells; experiment: Cytotoxicity, CCK8 assay, M7 cells
# Experimental: (§2) A peptide at graded concentration was incubated with 2 × 10^5/mL cells at 37 °C for 3 days before adding 10 μL of CCK8 reagent (Sigma-Aldrich). After another round of incubation at 37 °C for 2 h, A450 was measured with the Multi-Detection Microplate Reader. Cell viability was calculated by […].
# [4] = test system: HIV-1 HP23-resistant strains; conditions: ratio of IC50s
# Experimental: as §3
# [5] = test system: HIV-1IIIB (X4 virus); format: cell-based; conditions: ratio of IC50s
# Experimental: (§4) Inhibitory activities of peptides on infection by HIV-1 X4 strain IIIB, R5 strain Bal, and T20-, T2635-, HP23-resistant strains were determined as previously described [42]. For each well of a 96-well plate, 50 μL of a peptide were mixed with 50 μL of 100 × TCID50 (50% tissue culture infective doses) of HIV-1 live virus and incubated at 37 °C for 30 min. Afterwards, 2 × 10^4 MT-2 (for X4 virus) or CEMx174 5.25 M7 cells (for R5 virus) were added. After overnight culture, the supernatant was replaced with fresh RPMI-1640 medium containing 10% fetal bovine serum (FBS). After further culture at 37 °C for three days, 50 μL of the culture medium were collected and mixed with equal volume of 5% (v/v) Triton X-100. The p24 antigen, which represents HIV-1 quantity, was detected by ELISA. Briefly, the collected mixtures were added to a plate coated with anti-HIV Immune Globulin (HIVIG) from the NIH AIDS Reagent Program. Anti-p24 mAb 183, rabbit anti-mouse IgG-HRP (Dako, Glostrup, Denmark) and substrate 3,3,5,5-TMB (Sigma-Aldrich, New York, NY) were added and washed away sequentially. The absorbance at 450 nm (A450) was determined by a Multi-Detection Microplate Reader (Ultra 384, Tecan, Tokyo, Japan). IC50s were calculated using Calcusyn software (Biosoft, Ferguson, MO), and the lines of best fit were drawn using GraphPad Prism 8 software (La Jolla, CA).
# [6] = test system: cell-cell fusion between H9/IIIB cells and MT-2 cells; experiment: HIV-1-mediated cell-cell fusion (dye transfer assay); format: cell-based; conditions: ratio of IC50s
# Experimental: A dye transfer assay was performed to detect HIV-1 Env-mediated cell-cell fusion as described previously. Briefly, for each well of a 96-well plate, 2 × 10^3 H9/IIIB cells labeled with the fluorescent reagent Calcein AM (Molecular Probes, Inc., Eugene, Oregon) were incubated with a CHR-peptide at 37 °C for 30 min. Afterwards, 10^4 MT-2 cells were added and incubated at 37 °C for 2 h. The fused and unfused Calcein-labeled H9/IIIB cells were counted under an inverted fluorescence microscope (Zeiss, Oberkochen, Germany). The IC50 values were calculated by using the Calcusyn computer program (Biosoft, Ferguson, MO).
# [7] = test system: HIV-1IIIB (X4 virus); experiment: Virus wash and nonwash assay; format: cell-based; conditions: HIV-1IIIB incubated with peptide 4 °C 30 min, unbound peptide washed away, then MT-2 cells
# Experimental: To determine whether a peptide binds with the viral particle in order to execute its anti-HIV-1 activity, virus wash and nonwash assays were performed as previously described. Briefly, HIV-1IIIB (50 × TCID50) were incubated with a peptide at 4 °C for 30 min, followed by washes of the pretreated viral particles to remove the unbound peptide (control: without washes) before being added to 2 × 10^4 MT-2 cells. After culture at 37 °C overnight, the supernatant was replaced by fresh RPMI-1640 medium containing 10% FBS. The inhibitory activity of the virus-bound peptide in the wash group and free peptide in the nonwash group was determined as described above.
# [8] = test system: HIV-1Bal (R5 virus); format: cell-based; conditions: ratio of IC50s
# Experimental: as §4
# [9] = test system: HIV-1 T20-resistant strains; conditions: ratio of IC50s
# Experimental: as §4
# [10] = test system: MT-2 cells; experiment: Cytotoxicity, CCK8 assay, MT-2 cells
# Experimental: as §2
# [11] = test system: HIV-1IIIB; experiment: Ex vivo anti-HIV-1 activity of sera of peptide-treated mice; format: in vivo; conditions: ICR mice, 5 mg/kg i.p.; serum tested against HIV-1IIIB
# Experimental: as §1
# [12] = test system: HIV-1 T2635-resistant strains; conditions: ratio of IC50s
# Experimental: as §3
# [13] = Mice (i.p., n = 3), 5 mg/kg, concentration estimated from serum anti-HIV-1 activity, MODFIT
# [14] = concentrations as high as 8 μM, 3 days, 37 °C, CCK8
compound,measurement,setting,value
CCCCCCCCCCCCCCCC(=O)NCCCC[C@H](NC(=O)CCOCCOCCOCCOCCNC(=O)CNC(=O)[C@H](CO)NC(=O)CNC(=O)[C@H](CC(C)C)NC(=O)[C@H](CC(=O)O)NC(=O)[C@@H](NC(=O)[C@H](CCC(N)=O)NC(=O)[C@H](CCC(N)=O)NC(=O)[C@H](CC(N)=O)NC(=O)[C@H](CCC(N)=O)NC(=O)[C@H](CO)NC(=O)[C@H](CCCCN)NC(=O)[C@H](CCCCN)NC(=O)[C@H](CC(C)C)NC(=O)[C@@H](NC(=O)[C@H](CCC(=O)O)NC(=O)[C@H](CCC(=O)O)NC(=O)[C@@H](NC(=O)[C@H](CCCCN)NC(=O)[C@H](CCCCN)NC(=O)[C@@H](NC(=O)[C@H](Cc1ccc(O)cc1)NC(=O)[C@H](CCC(=O)O)NC(=O)[C@H](CCC(=O)O)NC(=O)[C@@H](NC(=O)[C@H](CCCCN)NC(=O)[C@H](CCCCN)NC(=O)[C@H](CCC(=O)O)NC(=O)[C@H](Cc1c[nH]c2ccccc12)NC(=O)[C@H](CCC(=O)O)NC(=O)[C@H](CCC(=O)O)NC(=O)[C@H](Cc1c[nH]c2ccccc12)NC(=O)[C@@H](NC(=O)[C@H](CCSC)NC(=O)[C@@H](N)CCC(=O)O)[C@@H](C)O)[C@@H](C)CC)[C@@H](C)CC)[C@@H](C)CC)[C@@H](C)CC)[C@@H](C)CC)C(=O)O [YIK-C16] (H-EMTWEEWEKKIEEYIKKIEEILKKSQNQQIDLGSG[PEG4]K(Palmitoyl)-OH; N-terminus and C-terminus assumed),"fold more effective than HP23-E6-IDL against infection by HIV-1 mutants resistant to T20, T2635 and HP23",[1],about 16 fold
same,AUC0-15h,[2]; [13],14900 ± 3800 ng·h/mL
same,AUCINF_obs,[2]; [13],15000 ± 3700 ng·h/mL
same,Cl_F_obs/Cl_obs,[2]; [13],5.773 ± 1.27 mL/min/kg
same,Cmax,[2]; [13],2200 ± 100 ng/mL
same,MRTlast,[2]; [13],9.5 ± 5.1 h
same,Tmax,[2]; [13],4.0 ± 1.7 h
same,Vz_F_obs/Vz_obs,[2]; [13],2.7388 ± 0.7407 L/kg
same,t½,[2]; [13],5.9 ± 3.2 h
same,fold longer serum half-life than HP23-E6-IDL,"[2]; mice, i.p.",~5.9 fold
same,non-cytotoxic concentration (8 μM) relative to IC50 for inhibiting HIV-1Bal infection,[3]; 8 μM versus IC50 against HIV-1Bal,~131 fold
same,in vitro cytotoxicity to M7 cells,[3]; [14],none of these peptides exhibited in vitro cytotoxicity
same,fold more potent than HP23-E6-IDL for inhibiting infection by HIV-1 HP23-resistant strains,[4],~26 fold
same,fold more potent than YIK against HIV-1IIIB infection,[5],3.6 fold
same,potency relative to YIK and HP23-E6-IDL in inhibiting HIV-1-mediated cell-cell fusion,[6],about two-fold more potent
same,"inhibition of HIV-1IIIB infection, virus preincubated with peptide, washed",[7],could inhibit HIV-1IIIB infection when the unbound peptide was washed away
same,fold more effective than HP23-E6-IDL against HIV-1Bal infection,[8],13.3 fold and ~13 fold
same,fold more effective than YIK against HIV-1Bal infection,[8],10.5 fold
same,fold more potent than HP23-E6-IDL for inhibiting infection by HIV-1 T20-resistant strains,[9],about 12 fold
same,non-cytotoxic concentration (8 μM) relative to IC50 for inhibiting HIV-1IIIB infection,[10]; 8 μM versus IC50 against HIV-1IIIB,about 105 fold
same,in vitro cytotoxicity to MT-2 cells,[10]; [14],none of these peptides exhibited in vitro cytotoxicity
same,maximum inhibitory activity of serum (fold of IC50; highest dilution-fold of serum causing 50% inhibition),[11],about 4500 fold
same,serum inhibitory activity maintained for 15 h post-injection (fold of IC50),[11],> 275 fold
same,time of maximum serum inhibitory activity post-injection,[11],about 3 h
same,fold more potent than HP23-E6-IDL for inhibiting infection by HIV-1 T2635-resistant strains,[12],about 12 fold
